Test results: US11498899B2, “Nitrone herbicides” (FMC Corporation, priority 2016, dated 2022)

Assays:
[1] = tested on: foxtail, giant (giant foxtail, Setaria faberii); assay: Test A preemergence, visual injury rating 0-100; format: in vivo
kochia (Kochia scoparia) [2] = assay: Test A preemergence, visual injury rating 0-100; format: in vivo
[3] = tested on: pigweed (Amaranthus retroflexus); assay: Test A preemergence, visual injury rating 0-100; format: in vivo
[4] = tested on: ragweed (common ragweed, Ambrosia elatior); assay: Test A preemergence, visual injury rating 0-100; format: in vivo
[5] = tested on: ryegrass, Italian (Italian ryegrass, Lolium multiflorum); assay: Test A preemergence, visual injury rating 0-100; format: in vivo
[6] = tested on: galium (catchweed bedstraw, Galium aparine); assay: Test A postemergence, visual injury rating 0-100; format: in vivo; details: 0 to 100 scale
[7] = tested on: foxtail, giant (giant foxtail, Setaria faberii); assay: Test A postemergence, visual injury rating 0-100; format: in vivo; details: 0 to 100 scale
[8] = tested on: barnyardgrass (Echinochloa crus-galli); assay: Test A postemergence, visual injury rating 0-100; format: in vivo; details: 0 to 100 scale
kochia (Kochia scoparia) [9] = assay: Test A postemergence, visual injury rating 0-100; format: in vivo; details: 0 to 100 scale
[10] = tested on: blackgrass (Alopecurus myosuroides); assay: Test A postemergence, visual injury rating 0-100; format: in vivo; details: 0 to 100 scale
[11] = tested on: pigweed (Amaranthus retroflexus); assay: Test A postemergence, visual injury rating 0-100; format: in vivo; details: 0 to 100 scale
[12] = tested on: ragweed (common ragweed, Ambrosia elatior); assay: Test A postemergence, visual injury rating 0-100; format: in vivo; details: 0 to 100 scale
[13] = tested on: ryegrass, Italian (Italian ryegrass, Lolium multiflorum); assay: Test A postemergence, visual injury rating 0-100; format: in vivo; details: 0 to 100 scale
corn (Zea mays) = assay: Test A postemergence, visual injury rating 0-100; format: in vivo; details: 0 to 100 scale
[14] = tested on: wheat (Triticum aestivum); assay: Test A postemergence, visual injury rating 0-100; format: in vivo; details: 0 to 100 scale
rice (Oryza sativa) = assay: Test B flooded paddy test, visual rating 0-100 (0 no effect, 100 complete control); details: Flood, 250 g ai/ha, applied to paddy water, rated after 13 to 15 days
[15] = tested on: barnyardgrass (Echinochloa crus-galli); assay: Test B flooded paddy test, visual rating 0-100; details: Flood, 250 g ai/ha, applied to paddy water, rated after 13 to 15 days
[16] = tested on: ducksalad (Heteranthera limosa); assay: Test B flooded paddy test, visual rating 0-100; details: Flood, 250 g ai/ha, applied to paddy water, rated after 13 to 15 days
[17] = tested on: barnyardgrass (Echinochloa crus-galli); assay: Test A preemergence, visual injury rating 0-100 (0 no effect, 100 complete control); format: in vivo

Compound	Foxtail, Giant plant response rating (0 to 100 scale) ([1]; 125 g ai/ha)	Foxtail, Giant plant response rating (0 to 100 scale) ([1]; 500 g ai/ha)	Kochia plant response rating (0 to 100 scale) (kochia (Kochia scoparia) [2]; 125 g ai/ha)	Kochia plant response rating (0 to 100 scale) (kochia (Kochia scoparia) [2]; 500 g ai/ha)	Pigweed plant response rating (0 to 100 scale) ([3]; 125 g ai/ha)	Pigweed plant response rating (0 to 100 scale) ([3]; 500 g ai/ha)	Ragweed plant response rating (0 to 100 scale) ([4]; 125 g ai/ha)	Ragweed plant response rating (0 to 100 scale) ([4]; 500 g ai/ha)	Ryegrass, Italian plant response rating (0 to 100 scale) ([5]; 125 g ai/ha)	Ryegrass, Italian plant response rating (0 to 100 scale) ([5]; 500 g ai/ha)	Galium plant response rating ([6]; 125 g ai/ha)	Galium plant response rating ([6]; 500 g ai/ha)	Foxtail, Giant plant response rating ([7]; 125 g ai/ha)	Foxtail, Giant plant response rating ([7]; 500 g ai/ha)	Barnyardgrass plant response rating ([8]; 125 g ai/ha)	Barnyardgrass plant response rating ([8]; 500 g ai/ha)	Kochia plant response rating (kochia (Kochia scoparia) [9]; 125 g ai/ha)	Kochia plant response rating (kochia (Kochia scoparia) [9]; 500 g ai/ha)	Blackgrass plant response rating ([10]; 125 g ai/ha)	Blackgrass plant response rating ([10]; 500 g ai/ha)	further results
CC1=[N+]([O-])C(C(=O)Nc2cccc(F)c2F)C(c2ccc(F)c(C(F)(F)F)c2)C1 (racemic) [Compound 64]	90	90	20	80	50	80	0	70	90	90	40	70	70	90	70	90	0	30	80	80	Pigweed plant response rating ([11]; 125 g ai/ha): 0; Pigweed plant response rating ([11]; 500 g ai/ha): 50; Ragweed plant response rating ([12]; 125 g ai/ha): 10; Ragweed plant response rating ([12]; 500 g ai/ha): 40; Ryegrass, Italian plant response rating ([13]; 125 g ai/ha): 70; Ryegrass, Italian plant response rating ([13]; 500 g ai/ha): 80; Corn plant response rating (corn (Zea mays); 125 g ai/ha): 90; Corn plant response rating (corn (Zea mays); 500 g ai/ha): 90; Wheat plant response rating ([14]; 125 g ai/ha): 70; Wheat plant response rating ([14]; 500 g ai/ha): 90; Rice plant response rating (0 to 100 scale) (rice (Oryza sativa)): 0; Barnyardgrass plant response rating (0 to 100 scale) [15]: 60; Ducksalad plant response rating (0 to 100 scale) [16]: 70; Barnyardgrass plant response rating (0 to 100 scale) ([17]; 125 g ai/ha): 90; Barnyardgrass plant response rating (0 to 100 scale) ([17]; 500 g ai/ha): 90
CC1=[N+]([O-])C(C(=O)Nc2cccc(F)c2F)C(c2cccc(Br)n2)C1 (racemic) [Compound 65]	0	90	0	0	0	0	0	0	0	100	0	30	0	20	0	0	0	0	0	0	Pigweed plant response rating ([11]; 125 g ai/ha): 0; Pigweed plant response rating ([11]; 500 g ai/ha): 0; Ragweed plant response rating ([12]; 125 g ai/ha): 0; Ragweed plant response rating ([12]; 500 g ai/ha): 0; Ryegrass, Italian plant response rating ([13]; 125 g ai/ha): 0; Ryegrass, Italian plant response rating ([13]; 500 g ai/ha): 0; Corn plant response rating (corn (Zea mays); 125 g ai/ha): 0; Corn plant response rating (corn (Zea mays); 500 g ai/ha): 0; Wheat plant response rating ([14]; 125 g ai/ha): 0; Wheat plant response rating ([14]; 500 g ai/ha): 10; Rice plant response rating (0 to 100 scale) (rice (Oryza sativa)): 10; Barnyardgrass plant response rating (0 to 100 scale) [15]: 15; Ducksalad plant response rating (0 to 100 scale) [16]: 60; Barnyardgrass plant response rating (0 to 100 scale) ([17]; 125 g ai/ha): 0; Barnyardgrass plant response rating (0 to 100 scale) ([17]; 500 g ai/ha): 90
CC1=[N+]([O-])C(C(=O)Nc2cccc(F)c2F)C(c2ccc(Br)cn2)C1 (racemic) [Compound 66]	10	70	0	0	0	0	0	0	0	0	0	0	0	0	0	0	0	0	0	0	Pigweed plant response rating ([11]; 125 g ai/ha): 0; Pigweed plant response rating ([11]; 500 g ai/ha): 0; Ragweed plant response rating ([12]; 125 g ai/ha): 0; Ragweed plant response rating ([12]; 500 g ai/ha): 0; Ryegrass, Italian plant response rating ([13]; 125 g ai/ha): 0; Ryegrass, Italian plant response rating ([13]; 500 g ai/ha): 0; Corn plant response rating (corn (Zea mays); 125 g ai/ha): 0; Corn plant response rating (corn (Zea mays); 500 g ai/ha): 0; Wheat plant response rating ([14]; 125 g ai/ha): 0; Wheat plant response rating ([14]; 500 g ai/ha): 0; Rice plant response rating (0 to 100 scale) (rice (Oryza sativa)): 15; Barnyardgrass plant response rating (0 to 100 scale) [15]: 35; Ducksalad plant response rating (0 to 100 scale) [16]: 75; Barnyardgrass plant response rating (0 to 100 scale) ([17]; 125 g ai/ha): 0; Barnyardgrass plant response rating (0 to 100 scale) ([17]; 500 g ai/ha): 20
COc1cccc(C2CC(C)=[N+]([O-])C2C(=O)Nc2cccc(F)c2F)n1 (racemic) [Compound 67]	0	60	0	0	0	0	0	0	0	0	0	0	0	10	0	0	0	0	0	0	Pigweed plant response rating ([11]; 125 g ai/ha): 0; Pigweed plant response rating ([11]; 500 g ai/ha): 0; Ragweed plant response rating ([12]; 125 g ai/ha): 0; Ragweed plant response rating ([12]; 500 g ai/ha): 0; Ryegrass, Italian plant response rating ([13]; 125 g ai/ha): 0; Ryegrass, Italian plant response rating ([13]; 500 g ai/ha): 0; Corn plant response rating (corn (Zea mays); 125 g ai/ha): 0; Corn plant response rating (corn (Zea mays); 500 g ai/ha): 0; Wheat plant response rating ([14]; 125 g ai/ha): 0; Wheat plant response rating ([14]; 500 g ai/ha): 0; Rice plant response rating (0 to 100 scale) (rice (Oryza sativa)): 15; Barnyardgrass plant response rating (0 to 100 scale) [15]: 15; Ducksalad plant response rating (0 to 100 scale) [16]: 65; Barnyardgrass plant response rating (0 to 100 scale) ([17]; 125 g ai/ha): 0; Barnyardgrass plant response rating (0 to 100 scale) ([17]; 500 g ai/ha): 70
CC1=[N+]([O-])C(C(=O)Nc2cccc(F)c2F)C(c2ccc(F)cc2Oc2ncc(F)cn2)C1 (racemic) [Compound 68]	50	100	0	30	0	0	0	70	20	90	30	40	0	90	0	40	0	30	70	70	Pigweed plant response rating ([11]; 125 g ai/ha): 0; Pigweed plant response rating ([11]; 500 g ai/ha): 30; Ragweed plant response rating ([12]; 125 g ai/ha): 0; Ragweed plant response rating ([12]; 500 g ai/ha): 0; Ryegrass, Italian plant response rating ([13]; 125 g ai/ha): 20; Ryegrass, Italian plant response rating ([13]; 500 g ai/ha): 90; Corn plant response rating (corn (Zea mays); 125 g ai/ha): 20; Corn plant response rating (corn (Zea mays); 500 g ai/ha): 90; Wheat plant response rating ([14]; 125 g ai/ha): 30; Wheat plant response rating ([14]; 500 g ai/ha): 80; Rice plant response rating (0 to 100 scale) (rice (Oryza sativa)): 0; Barnyardgrass plant response rating (0 to 100 scale) [15]: 0; Ducksalad plant response rating (0 to 100 scale) [16]: 0; Barnyardgrass plant response rating (0 to 100 scale) ([17]; 125 g ai/ha): 20; Barnyardgrass plant response rating (0 to 100 scale) ([17]; 500 g ai/ha): 100
